Patent US10022376B2 (Pfizer Inc., priority 2014, dated 2018)
Counter-ions that a name gives are not always drawn.

Legend:
JAK1 = JAK1 (Homo sapiens (Human), UniProt P23458); assay: JAK Caliper Enzyme Assay at 1 mM ATP (JAK1); format: biochemical; details: Caliper assay at 1 mM ATP
JAK2 = JAK2 (Homo sapiens (Human), UniProt O60674); assay: JAK Caliper Enzyme Assay at 1 mM ATP (JAK2); format: biochemical; details: Caliper assay at 1 mM ATP
TYK2 = TYK2 (Homo sapiens (Human), UniProt P29597); assay: JAK Caliper Enzyme Assay at 1 mM ATP (TYK2); format: biochemical; details: Caliper assay at 1 mM ATP
Chain of TYK2 (P29597 whole entry): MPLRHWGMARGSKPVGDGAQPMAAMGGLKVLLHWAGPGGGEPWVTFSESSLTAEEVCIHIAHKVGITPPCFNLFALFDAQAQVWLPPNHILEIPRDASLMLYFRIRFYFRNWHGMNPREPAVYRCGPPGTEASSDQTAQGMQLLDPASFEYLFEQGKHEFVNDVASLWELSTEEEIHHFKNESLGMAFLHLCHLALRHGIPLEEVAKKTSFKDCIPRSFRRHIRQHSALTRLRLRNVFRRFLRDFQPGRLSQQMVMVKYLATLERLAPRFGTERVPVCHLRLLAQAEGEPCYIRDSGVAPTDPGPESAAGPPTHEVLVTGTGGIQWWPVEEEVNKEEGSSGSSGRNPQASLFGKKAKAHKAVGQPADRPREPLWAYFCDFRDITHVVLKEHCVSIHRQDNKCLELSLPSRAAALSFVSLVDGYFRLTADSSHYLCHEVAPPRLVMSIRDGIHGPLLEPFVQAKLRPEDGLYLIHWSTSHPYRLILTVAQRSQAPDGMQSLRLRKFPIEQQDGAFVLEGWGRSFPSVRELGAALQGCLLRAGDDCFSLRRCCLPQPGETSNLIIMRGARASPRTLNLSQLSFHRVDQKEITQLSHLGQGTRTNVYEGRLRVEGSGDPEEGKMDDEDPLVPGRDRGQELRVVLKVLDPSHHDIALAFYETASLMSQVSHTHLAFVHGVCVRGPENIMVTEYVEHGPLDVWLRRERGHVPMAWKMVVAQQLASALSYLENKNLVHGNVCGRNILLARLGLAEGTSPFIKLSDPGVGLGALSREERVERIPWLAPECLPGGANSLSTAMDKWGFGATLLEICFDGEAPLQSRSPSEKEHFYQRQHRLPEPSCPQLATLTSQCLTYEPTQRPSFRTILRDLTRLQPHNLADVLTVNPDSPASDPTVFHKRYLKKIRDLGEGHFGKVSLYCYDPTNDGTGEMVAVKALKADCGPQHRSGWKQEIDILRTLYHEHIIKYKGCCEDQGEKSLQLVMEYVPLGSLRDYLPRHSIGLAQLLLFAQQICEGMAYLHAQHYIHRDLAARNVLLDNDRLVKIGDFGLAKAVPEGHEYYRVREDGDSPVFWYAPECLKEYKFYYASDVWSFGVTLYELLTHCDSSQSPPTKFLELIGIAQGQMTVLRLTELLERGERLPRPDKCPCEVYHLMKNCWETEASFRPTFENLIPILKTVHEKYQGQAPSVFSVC

JAK3 = JAK3 (Homo sapiens (Human), UniProt P52333); assay: JAK Caliper Enzyme Assay at 1 mM ATP (JAK3); format: biochemical; details: Caliper assay at 1 mM ATP
Chain of JAK3 (P52333 whole entry): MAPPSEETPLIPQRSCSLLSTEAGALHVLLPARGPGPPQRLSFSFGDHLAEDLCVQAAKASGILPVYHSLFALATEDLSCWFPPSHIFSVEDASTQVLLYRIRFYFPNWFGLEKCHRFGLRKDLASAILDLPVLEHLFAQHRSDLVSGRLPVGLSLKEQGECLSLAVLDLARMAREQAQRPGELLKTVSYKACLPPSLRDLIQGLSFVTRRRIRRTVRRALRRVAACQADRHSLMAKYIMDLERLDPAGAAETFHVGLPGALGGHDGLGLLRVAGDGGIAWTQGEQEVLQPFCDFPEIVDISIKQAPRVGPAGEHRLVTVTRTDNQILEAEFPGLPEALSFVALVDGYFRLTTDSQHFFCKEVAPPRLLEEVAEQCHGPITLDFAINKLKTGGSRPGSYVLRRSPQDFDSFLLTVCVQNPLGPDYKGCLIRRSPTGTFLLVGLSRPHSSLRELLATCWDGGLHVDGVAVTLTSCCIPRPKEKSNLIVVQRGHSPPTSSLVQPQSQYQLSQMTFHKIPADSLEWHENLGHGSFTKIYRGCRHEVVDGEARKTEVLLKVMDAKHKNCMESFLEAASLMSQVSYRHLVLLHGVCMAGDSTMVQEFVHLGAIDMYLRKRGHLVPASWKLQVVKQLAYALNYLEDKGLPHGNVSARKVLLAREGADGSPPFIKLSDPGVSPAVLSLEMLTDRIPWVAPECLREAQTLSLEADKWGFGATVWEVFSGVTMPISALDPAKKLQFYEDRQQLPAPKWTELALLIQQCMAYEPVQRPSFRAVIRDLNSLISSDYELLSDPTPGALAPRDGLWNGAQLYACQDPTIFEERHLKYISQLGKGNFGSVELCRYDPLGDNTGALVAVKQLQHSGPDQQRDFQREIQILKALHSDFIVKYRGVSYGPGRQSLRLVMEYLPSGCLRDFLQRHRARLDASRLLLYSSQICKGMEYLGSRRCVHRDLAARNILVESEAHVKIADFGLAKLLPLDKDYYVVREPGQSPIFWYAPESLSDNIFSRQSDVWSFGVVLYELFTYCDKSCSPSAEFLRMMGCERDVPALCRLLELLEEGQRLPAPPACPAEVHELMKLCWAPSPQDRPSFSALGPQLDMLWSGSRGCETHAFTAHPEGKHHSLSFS

[1] = system: rhIFNγ stimulated STAT-3 phosphorylation in the A549 human epithelial cell line; assay: A549 Cell Assay: Inhibition of pSTAT3; format: cell-based; details: A549 cells
How it was run: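 Percent inhibition of STAT3 Tyr705 phosphorylation was measured by MSD immunoassay of cell lysates. A549 cells were given compound for 1 h at 37° C (final 0.3 nM to 10 μM, 0.1% DMSO, in 0.2% BSA DMEM), followed by 30 min of rhIFNγ stimulation at 20 ng/mL final. Unstimulated DMSO wells served as background.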

Chain of JAK2 (O60674 whole entry): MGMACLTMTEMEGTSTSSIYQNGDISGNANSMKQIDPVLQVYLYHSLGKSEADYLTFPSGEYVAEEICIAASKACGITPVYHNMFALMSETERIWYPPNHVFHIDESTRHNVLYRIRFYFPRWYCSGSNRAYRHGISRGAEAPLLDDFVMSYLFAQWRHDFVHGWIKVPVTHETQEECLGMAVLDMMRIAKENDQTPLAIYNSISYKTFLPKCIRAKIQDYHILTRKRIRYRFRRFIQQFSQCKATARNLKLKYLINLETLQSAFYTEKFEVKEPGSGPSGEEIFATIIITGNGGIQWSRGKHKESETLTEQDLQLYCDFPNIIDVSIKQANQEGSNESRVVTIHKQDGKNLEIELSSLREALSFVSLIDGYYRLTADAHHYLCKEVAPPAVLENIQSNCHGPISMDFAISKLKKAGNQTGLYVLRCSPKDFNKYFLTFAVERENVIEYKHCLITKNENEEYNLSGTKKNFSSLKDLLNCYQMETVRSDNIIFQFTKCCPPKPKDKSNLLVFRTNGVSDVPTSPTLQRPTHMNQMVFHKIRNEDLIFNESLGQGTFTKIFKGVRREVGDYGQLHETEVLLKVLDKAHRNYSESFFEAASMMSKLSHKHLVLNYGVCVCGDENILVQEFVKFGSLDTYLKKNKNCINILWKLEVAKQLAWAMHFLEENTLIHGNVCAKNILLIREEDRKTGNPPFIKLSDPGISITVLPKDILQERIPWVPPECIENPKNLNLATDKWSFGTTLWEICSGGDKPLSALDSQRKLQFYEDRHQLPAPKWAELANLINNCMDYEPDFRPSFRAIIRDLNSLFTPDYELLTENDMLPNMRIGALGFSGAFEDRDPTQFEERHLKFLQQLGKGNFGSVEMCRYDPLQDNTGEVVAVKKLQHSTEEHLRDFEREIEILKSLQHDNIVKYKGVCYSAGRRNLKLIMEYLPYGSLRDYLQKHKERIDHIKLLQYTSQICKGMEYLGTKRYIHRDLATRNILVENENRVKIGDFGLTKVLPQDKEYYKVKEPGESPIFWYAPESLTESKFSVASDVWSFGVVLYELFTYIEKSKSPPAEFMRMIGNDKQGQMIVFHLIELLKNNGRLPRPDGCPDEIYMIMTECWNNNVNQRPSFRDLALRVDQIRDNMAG
Chain of JAK1 (P23458 whole entry): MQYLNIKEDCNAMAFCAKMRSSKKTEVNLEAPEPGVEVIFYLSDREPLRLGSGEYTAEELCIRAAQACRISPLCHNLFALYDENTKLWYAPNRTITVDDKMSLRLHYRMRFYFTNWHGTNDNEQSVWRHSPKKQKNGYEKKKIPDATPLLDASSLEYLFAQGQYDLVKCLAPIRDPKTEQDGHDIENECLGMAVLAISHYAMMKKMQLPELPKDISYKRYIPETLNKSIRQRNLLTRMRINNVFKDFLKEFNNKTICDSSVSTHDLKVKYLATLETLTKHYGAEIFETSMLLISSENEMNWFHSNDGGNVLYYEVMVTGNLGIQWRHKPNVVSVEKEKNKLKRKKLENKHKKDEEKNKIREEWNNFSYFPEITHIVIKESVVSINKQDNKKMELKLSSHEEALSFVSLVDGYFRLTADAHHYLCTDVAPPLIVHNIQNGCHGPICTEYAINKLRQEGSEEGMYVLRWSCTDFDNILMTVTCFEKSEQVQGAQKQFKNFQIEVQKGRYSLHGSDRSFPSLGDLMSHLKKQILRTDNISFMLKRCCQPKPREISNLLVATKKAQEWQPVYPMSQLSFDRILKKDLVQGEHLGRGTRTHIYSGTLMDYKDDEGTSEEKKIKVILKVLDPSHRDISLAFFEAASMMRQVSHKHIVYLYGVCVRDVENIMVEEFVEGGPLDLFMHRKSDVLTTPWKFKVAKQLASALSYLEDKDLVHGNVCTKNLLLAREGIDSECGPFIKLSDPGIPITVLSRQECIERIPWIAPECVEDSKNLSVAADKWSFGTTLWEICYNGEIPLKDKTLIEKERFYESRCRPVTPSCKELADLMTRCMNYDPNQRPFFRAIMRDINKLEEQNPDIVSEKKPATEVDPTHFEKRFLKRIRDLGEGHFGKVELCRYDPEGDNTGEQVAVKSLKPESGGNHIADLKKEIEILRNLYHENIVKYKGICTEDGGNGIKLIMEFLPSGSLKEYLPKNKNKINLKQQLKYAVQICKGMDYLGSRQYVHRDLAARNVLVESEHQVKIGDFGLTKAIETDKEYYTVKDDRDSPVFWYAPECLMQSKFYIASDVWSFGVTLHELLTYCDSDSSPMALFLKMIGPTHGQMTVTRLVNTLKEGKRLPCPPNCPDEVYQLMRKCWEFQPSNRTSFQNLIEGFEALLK

Structure (SMILES)	IC50 (JAK1) [nM]	IC50 (JAK2) [nM]	IC50 (TYK2) [nM]	IC50 (JAK3) [nM]	IC50 ([1]; Homo sapiens) [nM]	IC50 [1] [nM]
CCc1cc(O)ccc1-c1cc2[nH]ncc2c(N2CCC(S(=O)(=O)N(C)C)C2)n1 (racemic) [Example 126, 1-[6-(2-ethyl-4-hydroxyphenyl)-1H-pyrazolo[4,3-c]pyridin-4-yl]-N, N-dimethylpyrrolidine-3-sulfonamide (racemic)]	8.1	23.5	668	35.1		
CCc1cc(O)c(F)cc1-c1cc2[nH]nc(C(=O)NC)c2c(NCc2ccccc2N(CC)S(C)(=O)=O)n1 [Example 9, 6-(2-ethyl-5-fluoro-4-hydroxyphenyl)-4-({2-[ethyl(methylsulfonyl)amino]benzyl}amino)-N-methyl-1H-pyrazolo[4,3-c]pyridine-3-carboxamide]	1.7	10.8	7.2	60	14.9	
CCc1cc(O)c(F)cc1-c1cc2[nH]nc(C(=O)NC)c2c(NCC2CCCC2)n1 [Example 10, 4-[(cyclopentylmethyl)amino]-6-(2-ethyl-5-fluoro-4-hydroxyphenyl)-N-methyl-1H-pyrazolo[4,3-c]pyridine-3-carboxamide]	4.7	19	17.9	93.1	26	
CCN(c1ccccc1CNc1nc(-c2cc(F)c(O)cc2CC(F)(F)F)cc2[nH]nc(C(=O)NC)c12)S(C)(=O)=O [Example 12, 4-({2-[ethyl(methylsulfonyl)amino]benzyl}amino)-6-[5-fluoro-4-hydroxy-2-(2,2,2-trifluoroethyl)phenyl]-N-methyl-1H-pyrazolo[4,3-c]pyridine-3-carboxamide]	6.4	31.5	24.8	121	44.9	
CCS(=O)(=O)N(C)c1ccccc1CNc1nc(-c2cc(F)c(O)cc2CC(F)(F)F)cc2[nH]nc(C(=O)NC)c12 [Example 13, 4-({2-[(ethylsulfonyl)(methyl)amino]benzyl}amino)-6-[5-fluoro-4-hydroxy-2-(2,2,2-trifluoroethyl)phenyl]-N-methyl-1H-pyrazolo[4,3-c]pyridine-3-carboxamide]	5.3	26.6	35.7	118	96.7	
CNC(=O)c1n[nH]c2cc(-c3cc(F)c(O)cc3CC(F)(F)F)nc(NCc3cc(F)ccc3N(C)S(C)(=O)=O)c12 [Example 14, 6-[5-fluoro-4-hydroxy-2-(2,2,2-trifluoroethyl)phenyl]-4-({5-fluoro-2-[methyl(methylsulfonyl)amino]benzyl}amino)-N-methyl-1H-pyrazolo[4,3-c]pyridine-3-carboxamide]	4.2	20.5	43.2	99.7	20.7	
CNC(=O)c1n[nH]c2cc(-c3cc(F)c(O)cc3CC(F)(F)F)nc(NCc3c(F)cccc3N(C)S(C)(=O)=O)c12 [Example 18, 6-[5-fluoro-4-hydroxy-2-(2,2,2-trifluoroethyl)phenyl]-4-({2-fluoro-6-[methyl(methylsulfonyl)amino]benzyl}amino)-N-methyl-1H-pyrazolo[4,3-c]pyridine-3-carboxamide]	4		31	73	97	
CCc1cc(O)c(F)cc1-c1cc2[nH]nc(C(=O)NC)c2c(NCc2cc(C)ccc2N(C)S(C)(=O)=O)n1 [Example 21, 6-(2-ethyl-5-fluoro-4-hydroxyphenyl)-N-methyl-4-({5-methyl-2-[methyl(methylsulfonyl)amino]benzyl}amino)-1H-pyrazolo[4,3-c]pyridine-3-carboxamide]	2.7	13.2	11.4	67.9	35.6	
CCc1cc(O)c(F)cc1-c1cc2[nH]nc(C(=O)NC)c2c(NCc2ccccc2N(C)S(=O)(=O)c2ccccc2)n1 [Example 22, 6-(2-ethyl-5-fluoro-4-hydroxyphenyl)-N-methyl-4-({2-[methyl(phenylsulfonyl)amino]benzyl}amino)-1H-pyrazolo[4,3-c]pyridine-3-carboxamide]	17.5	81.3	59.1	359	52.8	
CCc1cc(O)c(F)cc1-c1cc2[nH]nc(C(=O)NC)c2c(NCCc2ccc(NS(=O)(=O)c3ccccc3)cc2)n1 [Example 23, 6-(2-ethyl-5-fluoro-4-hydroxyphenyl)-N-methyl-4-[(2-{4-[(phenylsulfonyl)amino]phenyl}ethyl)amino]-1H-pyrazolo[4,3-c]pyridine-3-carboxamide]	5.8	25.7	83.2	111	51.4	
CNC(=O)c1n[nH]c2cc(-c3cc(F)c(O)cc3CC(F)(F)F)nc(NCc3ccccc3N(CCO)S(C)(=O)=O)c12 [Example 24, 6-[5-fluoro-4-hydroxy-2-(2,2,2-trifluoroethyl)phenyl]-4-({2-[(2-hydroxyethyl)(methylsulfonyl)amino]benzyl}amino)-N-methyl-1H-pyrazolo[4,3-c]pyridine-3-carboxamide]	2.9	16.5	29.9	69.6	226	
CN(c1ccccc1CNc1nc(-c2cc(F)c(O)cc2CC(F)(F)F)cc2[nH]nc(C(N)=O)c12)S(=O)(=O)c1ccccc1 [Example 26, 6-[5-fluoro-4-hydroxy-2-(2,2,2-trifluoroethyl)phenyl]-4-({2-[methyl(phenylsulfonyl)amino]benzyl}amino)-1H-pyrazolo[4,3-c]pyridine-3-carboxamide]	19.9	91.1	218	293	124	
CNC(=O)c1n[nH]c2cc(-c3cc(F)c(O)cc3CC(F)(F)F)nc(NCc3ccc(O)cc3N(C)S(C)(=O)=O)c12 [Example 33, 6-[5-fluoro-4-hydroxy-2-(2,2,2-trifluoroethyl)phenyl]-4-({4-hydroxy-2-[methyl(methylsulfonyl)amino]benzyl}amino)-N-methyl-1H-pyrazolo[4,3-c]pyridine-3-carboxamide]	5.7	25	282	75.2	490	
CNC(=O)c1n[nH]c2cc(-c3cc(F)c(O)cc3CC(F)(F)F)nc(NCc3cc(O)ccc3N(C)S(=O)(=O)c3ccccc3)c12 [Example 35, 6-[5-fluoro-4-hydroxy-2-(2,2,2-trifluoroethyl)phenyl]-4-({5-hydroxy-2-[methyl(phenylsulfonyl)amino]benzyl}amino)-N-methyl-1H-pyrazolo[4,3-c]pyridine-3-carboxamide]	39.9	249	256	817	437	
CCNC(=O)c1n[nH]c2cc(-c3cc(F)c(O)cc3CC(F)(F)F)nc(NCc3nccnc3N(CC)S(C)(=O)=O)c12 [Example 46, N-ethyl-4-[({3-[ethyl(methylsulfonyl)amino]pyrazin-2-yl}methyl)amino]-6-[5-fluoro-4-hydroxy-2-(2,2,2-trifluoroethyl)phenyl]-1H-pyrazolo[4,3-c]pyridine-3-carboxamide]	32.9			179		
CNC(=O)c1n[nH]c2cc(-c3cc(F)c(O)cc3CC(F)(F)F)nc(NCc3cc(O)ccc3N(C)S(C)(=O)=O)c12 [Example 50]		10.7	10.5	47.4		321
CNC(=O)c1n[nH]c2cc(-c3cc(F)c(O)cc3CC(F)(F)F)nc(NCc3cc(O)ccc3N(C)S(=O)(=O)c3cccnc3)c12 [Example 54, 6-[5-fluoro-4-hydroxy-2-(2,2,2-trifluoroethyl)phenyl]-4-({5-hydroxy-2-[methyl(pyridin-3-ylsulfonyl)amino]benzyl}amino)-N-methyl-1H-pyrazolo[4,3-c]pyridine-3-carboxamide]	6.1	32.9	25.9	123	135	
Cc1cnc(N(C)S(C)(=O)=O)c(CNc2nc(-c3cc(F)c(O)cc3CC(F)(F)F)cc3[nH]nc(C(N)=O)c23)c1 [Example 86, 6-(5-fluoro-4-hydroxy-2-(2,2,2-trifluoroethyl)phenyl)-4-(((5-methyl-2-(N-methylmethylsulfonamido)pyridin-3-yl)methyl)amino)-1H-pyrazolo[4,3-c]pyridine-3-carboxamide]	38.4	110	4820	81.7	425	
CCc1cc(O)c(F)cc1-c1cc2[nH]ncc2c(N(CCc2ccc(NS(C)(=O)=O)cc2)Cc2ccccc2N(C)S(C)(=O)=O)n1 [Example 130, N-[2-({[6-(2-ethyl-5-fluoro-4-hydroxyphenyl)-1H-pyrazolo[4,3-c]pyridin-4-yl](2-{4-[(methylsulfonyl)amino]phenyl}ethyl)amino}methyl)phenyl]-N-methylmethanesulfonamide hydrochloride]	43.8		194	1360	729	
CCc1cc(O)c(F)cc1-c1cc2[nH]ncc2c(NCc2ccccc2N(CC)S(C)(=O)=O)n1 [Example 138, N-ethyl-N-[2-({[6-(2-ethyl-5-fluoro-4-hydroxyphenyl)-1H-pyrazolo[4,3-c]pyridin-4-yl]amino}-methyl)phenyl]methanesulfonamide]		2.6	4.8	14.2	5.4	
